From patent US8440677B2, “Atropisomers of 2-purinyl-3-tolyl-quinazolinone derivatives and methods of use” (Gilead Calistoga LLC, priority 2009, dated 2013)
Like-named read-outs stand apart in the source and are kept apart here.

Tests used:
[1] = for plasma concentration at 24 hours: female rats, single dose 1.5 mg/kg
[2] = Elimination in urine by LC-MS; assay type: in vivo; conditions: compared with 1(S)
[3] = human subjects
[4] = Metabolic products in rat urine by LC-MS (FIG. 12); assay type: in vivo; conditions: rats, single 50 mg/kg oral dose of the atropisomer
Method: A single 50 mg/kg oral dose of either atropisomer 1(S) or 1(R) was administered to rat subjects. The rat urine was subsequently sampled and analyzed using LC-MS instrumentation.

[5] = human subject, oral radiolabeled atropisomer; for metabolite formation in plasma, 72 hours: 72 hours after administration
[6] = Solubility in a series of aqueous solvents (FIG. 4); assay type: physicochemical; conditions: variety of aqueous solutions
[7] = biological target: T1, p110δ (Homo sapiens, UniProt O00329); assay: In vitro activity against p110 isoforms, cell-based assays (FIG. 5B); conditions: versus other p110 isoforms
T1 sequence (O00329 1-1044): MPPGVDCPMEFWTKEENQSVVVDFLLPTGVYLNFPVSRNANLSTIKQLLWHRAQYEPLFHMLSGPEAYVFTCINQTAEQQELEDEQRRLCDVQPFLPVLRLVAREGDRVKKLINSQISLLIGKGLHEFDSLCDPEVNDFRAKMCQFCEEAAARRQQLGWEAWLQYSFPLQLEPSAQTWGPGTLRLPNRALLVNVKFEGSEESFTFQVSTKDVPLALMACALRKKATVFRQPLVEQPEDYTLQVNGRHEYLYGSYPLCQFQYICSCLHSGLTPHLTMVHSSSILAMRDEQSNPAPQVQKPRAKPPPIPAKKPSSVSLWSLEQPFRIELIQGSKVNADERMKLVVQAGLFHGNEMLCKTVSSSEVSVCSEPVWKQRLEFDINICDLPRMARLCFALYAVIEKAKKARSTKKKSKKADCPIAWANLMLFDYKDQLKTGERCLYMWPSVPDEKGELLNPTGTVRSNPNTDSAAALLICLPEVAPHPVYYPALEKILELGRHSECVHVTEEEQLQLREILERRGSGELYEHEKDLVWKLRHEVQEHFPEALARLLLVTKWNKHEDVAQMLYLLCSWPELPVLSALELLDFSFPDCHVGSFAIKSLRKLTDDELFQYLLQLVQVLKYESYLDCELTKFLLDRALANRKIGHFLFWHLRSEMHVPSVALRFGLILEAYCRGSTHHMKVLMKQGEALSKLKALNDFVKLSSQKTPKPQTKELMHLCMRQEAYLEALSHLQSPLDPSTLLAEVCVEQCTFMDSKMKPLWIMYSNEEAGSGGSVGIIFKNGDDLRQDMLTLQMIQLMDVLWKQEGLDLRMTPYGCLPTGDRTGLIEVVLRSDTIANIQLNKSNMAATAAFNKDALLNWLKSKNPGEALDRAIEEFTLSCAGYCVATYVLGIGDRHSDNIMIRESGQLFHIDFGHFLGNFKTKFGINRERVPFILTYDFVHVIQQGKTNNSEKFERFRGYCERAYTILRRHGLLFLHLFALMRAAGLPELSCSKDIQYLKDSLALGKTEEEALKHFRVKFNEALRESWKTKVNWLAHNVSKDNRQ
Description: (§1) The in vitro activity of 1 and atropisomers, 1(S) and 1(R), have similar profiles in various isoforms of p110 inhibition as shown in FIGS. 5A and 5B. […] Although their in vitro potency appears to be similar, there are surprising in vivo differences observed between 1(S) and 1(R) as discovered in pharmacokinetic studies, mainly relating to the increased exposure of 1(S) and decreased exposure of 1(R) in the subject.

[8] = Plasma concentration of atropisomers in rats after oral dosing with racemic 1 (FIG. 6); assay type: in vivo; conditions: female rats, single 50 mg/kg oral dose of racemic 1, 8 hours after dosing
[9] = clinical; conditions: human, plasma, po, 100 mg
[10] = Interconversion of atropisomers in blood plasma; assay type: in vivo; conditions: within 4 hours after administration of the atropisomer
Description: Another possible explanation for the difference in exposure is that 1(R) is interconverted to 1(S) over time. […] However, this small amount of conversion should only account for a fraction of the difference in exposure rates in vivo and other factors, such as selective elimination of 1(R), are likely to play the major role in the lowered exposure rate of 1(R).

[11] = biological target: p110δ (Homo sapiens, UniProt O00329); assay: In vitro activity against p110 isoforms, biochemical assays (FIG. 5A); conditions: versus p110alpha, p110beta, p110 gamma isoforms
Description: as §1
Target sequence in this assay (P27986 whole entry partner, one chain of several, canonical isoform): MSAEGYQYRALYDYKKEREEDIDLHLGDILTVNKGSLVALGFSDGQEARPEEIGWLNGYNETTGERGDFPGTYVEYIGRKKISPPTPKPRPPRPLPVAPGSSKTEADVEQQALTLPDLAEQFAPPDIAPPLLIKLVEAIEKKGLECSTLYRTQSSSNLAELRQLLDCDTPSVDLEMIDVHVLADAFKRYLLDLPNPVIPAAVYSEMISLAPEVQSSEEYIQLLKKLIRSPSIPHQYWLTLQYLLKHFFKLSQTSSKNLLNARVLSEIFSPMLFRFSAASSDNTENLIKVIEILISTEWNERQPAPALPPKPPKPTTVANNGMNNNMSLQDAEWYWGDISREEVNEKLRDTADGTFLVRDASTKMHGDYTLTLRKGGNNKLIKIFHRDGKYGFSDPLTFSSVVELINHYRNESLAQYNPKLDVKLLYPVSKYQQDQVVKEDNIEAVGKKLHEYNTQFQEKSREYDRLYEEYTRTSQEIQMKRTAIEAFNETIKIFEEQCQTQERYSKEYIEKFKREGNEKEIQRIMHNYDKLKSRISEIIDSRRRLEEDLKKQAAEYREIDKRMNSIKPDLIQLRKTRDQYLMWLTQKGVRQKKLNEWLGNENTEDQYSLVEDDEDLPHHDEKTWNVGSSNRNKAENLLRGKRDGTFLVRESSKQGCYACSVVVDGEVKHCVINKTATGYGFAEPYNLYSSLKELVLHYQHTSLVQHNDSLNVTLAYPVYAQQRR

[12] = human; for AUClast / Cmax / T½: 25 mg racemate daily for 7 days, 40 nCi labeled spike on day 4
[13] = Plasma concentration of atropisomers in dogs after oral dosing with racemic 1 (FIG. 7); assay type: in vivo; conditions: female dogs, single 50 mg/kg oral dose of racemic 1
Method: The tagged racemic mixture or separated atropisomers were administered in rats, dogs, and human subjects through oral and i.v. routes. The compounds were dissolved in PEG 100 such that any difference in dissolution rates would not play a role in the pharmacokinetic profile of the compounds. […] After administration of the compound, blood plasma of the subjects were sampled over time and evaluated by analytical HPLC methods developed to identify and measure concentrations of compound 1(S) or 1(R) present in the sample. It was observed that the most abundant isomer measured in the plasma is compound 1(S), which accounts for 70-80% of exposure to the subject.
In approximately 1 hour after dosing the maximum concentration of compounds 1(S) and 1(R) is reached. At that point, the concentration of 1(R) is less than half the concentration of compound 1(S). […] These large differences in pharmacokinetic behavior were not predictable.

[14] = system: collagen induced arthritis (CIA) rats; assay: Collagen induced arthritis (CIA) rats; assay type: in vivo, rat; conditions: compared to vehicle
[15] = Metabolites in human plasma; conditions: human subjects dosed with the substance
[16] = in vivo; conditions: female, Sprague Dawley, rat, iv
[17] = compounds dissolved in PEG 100
[18] = Plasma concentration in human subjects after a single oral dose of 100 mg or 10 mg (FIG. 10); assay type: in vivo
[19] = Plasma concentration in rats after single oral dose of 1(S) or 1(R) (FIG. 9B); assay type: in vivo, rat; conditions: female rats, single oral dose 1.5 mg/kg, 12 hour time point
[20] = Human pharmacokinetics, racemic mixture versus 1(S) at 10 mg once daily; assay type: in vivo
Method: Human pharmacokinetic was obtained after both the racemic mixture and 1(S) were administered at 10 mg once daily. […] Since the dose is low and well absorbed, as evidenced by the determination of 100% bioavailability, it is likely that the 1(R) metabolism is greater. The greater extent and complexity of 1(R) metabolism was supported by studies on human and rat in vivo metabolism as well as in vitro studies of human liver microsomes and protein binding.

[21] = Metabolites in human urine by LC/MS/MS; conditions: humans
Description: Urine was collected from humans dosed the racemic mixture and evaluated for possible metabolites using LC/MS/MS.

[22] = female SD rats, single bolus i.v.
[23] = single 100 mg oral dose of racemic 1
[24] = 25 mg racemate daily, labeled spike on day 4, after day 1

## Cc1ccccc1-n1c(Cn2cnc3c(N)ncnc32)nc2cccc(C)c2c1=O (single isomer, unassigned) [Compound 1(R), 2-((6-amino-9H-purin-9-yl)methyl)-5-methyl-3-o-tolylquinazolin-4(3H)-one]
[1]; [22]
  Vz of 1(R) relative to 1(S) or racemic mixture: about 2.6 times
  half life of 1(R) relative to 1(S) or racemic mixture 1: about 2.8 times
[1]
  plasma concentration at 24 hours: very low
[2]
  elimination in urine: preferentially eliminated in urine
[3]; [23]
  plasma concentration of 1(R) relative to 1(S) at maximum concentration: less than half
[4]
  metabolic products found in urine: more metabolic products
[5]
  metabolite formation in plasma, 72 hours: primarily the metabolites are detected
[6]
  solubility differences between 1(S) and 1(R): Modest solubility differences
[7]
  p110δ inhibition in cell-based assays: selective p110δ inhibition
[8]
  average plasma concentration of 1(R) relative to 1(S): approximately one-fourth
[9]; half-life, human subjects, single 100 mg oral dose of racemic 1
  half-life: ~9 h
[10]
  conversion to the other atropisomer in blood plasma: approximately 14%
[11]
  p110δ inhibition in biochemical assays: selective p110δ inhibition
[12]
  AUClast: 21676 neq*h/mL
  Cmax: 1946 neq/mL
[12]; 25 mg racemate daily, labeled spike on day 4, 50 hours from dosing
  concentration of 14C radiolabeled material in blood plasma: 10-50 neq/mL
[12]; [24]
  concentration of 1(R) relative to 1(S): about one-fourth
  concentration of 14C radiolabeled material in blood plasma: about 500 neq/mL
[13]
  plasma concentration of 1(R) relative to 1(S) at maximum concentration: less than half
  time to maximum plasma concentration: approximately 1 hour

## Cc1ccccc1-n1c(Cn2cnc3c(N)ncnc32)nc2cccc(C)c2c1=O (single isomer, unassigned) [Compound 1(S), 2-((6-amino-9H-purin-9-yl)methyl)-5-methyl-3-o-tolylquinazolin-4(3H)-one]
[14]; FIG. 15
  anti-collagen antibody levels: reduction of collagen antibody levels
[14]; FIG. 16
  X-ray score (radiographic assessment): reduction in the X-ray score
[14]; similar to MTX, FIGS. 17A-D
  histopathology, dark areas of tissue images: reduced
[14]; versus days post compound dosing, FIG. 14
  arthritis score: activity in reducing the severity of arthritis
[1]
  plasma concentration at 24 hours: very low
[3]; oral racemic 1, greater than in dogs
  half-life in humans (in words): several days
[3]; [23]
  share of the exposure at the maximum concentration point: approximately 70%
[3]; single 100 mg oral dose of racemic 1, 72 hours post-dosing
  plasma concentration of 1(S) relative to 1(R): over 10 times
[4]
  metabolic products found in urine: mainly one compound
[15]
  number of metabolites observed in plasma: one
[16]; plasma, 1.5 mg/kg
  AUC: 0.865 ± 0.212 µg·h/mL
  Vd: 5.77 ± 2.74 L/kg
  clearance: 1.84 L/h/kg
  half-life: 2.5 ± 1.6 h
[5]; 1 hour after administration
  metabolite formation in plasma, 1 hour: remains largely unmodified
[5]
  metabolite formation in plasma, 72 hours: still less than the amount of the parent compound
[17]
  share of exposure to the subject (most abundant isomer in plasma): 70-80%
[6]
  solubility differences between 1(S) and 1(R): Modest solubility differences
[7]
  p110δ inhibition in cell-based assays: selective p110δ inhibition
[18]; single oral dose of 10 mg
  maximum plasma concentration of 1(S) relative to 1(R): about double
[18]; single oral dose of 100 mg
  maximum plasma concentration of 1(S) relative to 1(R): over 2 times
[19]
  plasma concentration of 1(S) versus 1(R): greatly exceed
[9]
  half-life: > 72 h
[10]
  conversion to the other atropisomer in blood plasma: less than 1%
[11]
  p110δ inhibition in biochemical assays: selective p110δ inhibition
[12]
  AUClast: 90511 neq*h/mL
  Cmax: 3930 neq/mL
  T½: 63.9 h
[12]; data of FIG. 11
  AUC of 1(S) relative to 1(R): over 4 times
  Cmax of 1(S) relative to 1(R): twice
  half-life of 1(S) relative to 1(R): 6 times
[13]
  time to maximum plasma concentration: approximately 1 hour
[20]
  Cmax of 1(S) greater than racemic mixture: 30%
[20]; Day 1
  increase of AUC0-24 of 1(S) over racemic mixture: 2.4 fold
[20]; Day 7
  increase of AUC0-24 of 1(S) over racemic mixture: 40%

## Cc1ccccc1-n1c(Cn2cnc3c(N)ncnc32)nc2cccc(C)c2c1=O (single isomer, unassigned) [Compound 1, 2-((6-amino-9H-purin-9-yl)methyl)-5-methyl-3-o-tolylquinazolin-4(3H)-one]
[15]; listed as racemic mixture
  number of metabolites observed in plasma: 2
[16]; in vivo, 3 mg/kg
  AUC: 1.97 ± 0.243 µg·h/mL
  Vd: 5.4 ± 1.57 L/kg
  clearance: 1.56 L/h/kg
  half-life: 2.5 ± 0.7 h
[7]
  p110δ inhibition in cell-based assays: selective p110δ inhibition
[21]; authentic racemic standards, achiral method
  number of metabolites confirmed in urine: 5
[21]; counting atropisomers of metabolites
  total number of metabolites observed in urine: 9
[11]
  p110δ inhibition in biochemical assays: selective p110δ inhibition
[12]
  AUClast: 51,032 ± 22,383 neq*h/mL
  Cmax: 2780 ± 1163 neq/mL
  T½: 69.9 ± 26.6 h
